According to the kinase profiling compilation of Christmann-Franck et al. (2016):
Several values for one entry are separate records, joined by “and”; a condition that tells them apart may be missing. Identical values can stand only once.

Experiments:
Experiment in all cases: radiometric filter-binding kinase assay, Kinase HotSpot
Conditions in all cases: compound 0.5 µM; ATP 10 µM
PDGFRB (human) = PDGFRB (human) (UniProt P09619)
HIPK4 (human) = HIPK4 (human) (UniProt Q8NE63)
TNK2 (human) = TNK2 (human) (UniProt Q07912)
MYLK (human) = MYLK (human) (UniProt Q15746)
PKN1 (human) = PKN1 (human) (UniProt Q16512)
MAPK9 (human) = MAPK9 (human) (UniProt P45984)
PRKG1 (human) = PRKG1 (human) (UniProt Q13976)
NEK6 (human) = NEK6 (human) (UniProt Q9HC98)
CSNK1G2 (human) = CSNK1G2 (human) (UniProt P78368)
CHEK1 (human) = CHEK1 (human) (UniProt O14757)
LTK (human) = LTK (human) (UniProt P29376)
CDK4 CCND1 (human) = CDK4 CCND1 (human) (UniProt P24385+P11802)
HCK (human) = HCK (human) (UniProt P08631)
MATK (human) = MATK (human) (UniProt P42679)
PTK2 (human) = PTK2 (human) (UniProt Q05397)
MERTK (human) = MERTK (human) (UniProt Q12866)
MAP3K9 (human) = MAP3K9 (human) (UniProt P80192)
CLK1 (human) = CLK1 (human) (UniProt P49759)
ACVR1 (human) = ACVR1 (human) (UniProt Q04771)
MAP4K4 (human) = MAP4K4 (human) (UniProt O95819)
CHUK (human) = CHUK (human) (UniProt O15111)
CAMK2D (human) = CAMK2D (human) (UniProt Q13557)
NLK (human) = NLK (human) (UniProt Q9UBE8)
FYN (human) = FYN (human) (UniProt P06241)
FGR (human) = FGR (human) (UniProt P09769)
CLK2 (human) = CLK2 (human) (UniProt P49760)
FES (human) = FES (human) (UniProt P07332)
RPS6KB1 (human) = RPS6KB1 (human) (UniProt P23443)
RPS6KA1 KD1 KD2 (human) = RPS6KA1 KD1 KD2 (human) (UniProt Q15418)
CDK3 CCNE1 (human) = CDK3 CCNE1 (human) (UniProt Q00526+P24864)
TEC (human) = TEC (human) (UniProt P42680)
WNK2 (human) = WNK2 (human) (UniProt Q9Y3S1)
EPHA3 (human) = EPHA3 (human) (UniProt P29320)
MAPK10 (human) = MAPK10 (human) (UniProt P53779)
CDK6 CCND1 (human) = CDK6 CCND1 (human) (UniProt Q00534+P24385)
RPS6KA6 KD1 KD2 (human) = RPS6KA6 KD1 KD2 (human) (UniProt Q9UK32)
PRKCA (human) = PRKCA (human) (UniProt P17252)
LCK (human) = LCK (human) (UniProt P06239)
ULK2 (human) = ULK2 (human) (UniProt Q8IYT8)
PRKCB2 (human) = PRKCB2 (human) (UniProt P05771)
MELK (human) = MELK (human) (UniProt Q14680)
BLK (human) = BLK (human) (UniProt P51451)

CSNK1G2 (human), sequence (P78368 whole entry, looked up): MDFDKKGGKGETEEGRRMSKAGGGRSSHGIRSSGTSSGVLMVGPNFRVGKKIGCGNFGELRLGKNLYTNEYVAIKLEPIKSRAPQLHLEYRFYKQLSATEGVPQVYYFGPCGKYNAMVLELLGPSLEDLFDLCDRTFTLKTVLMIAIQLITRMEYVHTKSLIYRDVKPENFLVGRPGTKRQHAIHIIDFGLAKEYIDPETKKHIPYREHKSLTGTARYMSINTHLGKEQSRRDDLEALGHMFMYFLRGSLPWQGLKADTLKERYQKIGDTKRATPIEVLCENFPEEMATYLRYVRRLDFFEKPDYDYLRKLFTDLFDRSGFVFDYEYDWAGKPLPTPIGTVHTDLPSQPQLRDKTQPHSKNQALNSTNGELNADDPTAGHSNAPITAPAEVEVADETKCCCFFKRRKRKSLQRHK
RPS6KA1 KD1 KD2 (human), sequence (Q15418 whole entry, looked up): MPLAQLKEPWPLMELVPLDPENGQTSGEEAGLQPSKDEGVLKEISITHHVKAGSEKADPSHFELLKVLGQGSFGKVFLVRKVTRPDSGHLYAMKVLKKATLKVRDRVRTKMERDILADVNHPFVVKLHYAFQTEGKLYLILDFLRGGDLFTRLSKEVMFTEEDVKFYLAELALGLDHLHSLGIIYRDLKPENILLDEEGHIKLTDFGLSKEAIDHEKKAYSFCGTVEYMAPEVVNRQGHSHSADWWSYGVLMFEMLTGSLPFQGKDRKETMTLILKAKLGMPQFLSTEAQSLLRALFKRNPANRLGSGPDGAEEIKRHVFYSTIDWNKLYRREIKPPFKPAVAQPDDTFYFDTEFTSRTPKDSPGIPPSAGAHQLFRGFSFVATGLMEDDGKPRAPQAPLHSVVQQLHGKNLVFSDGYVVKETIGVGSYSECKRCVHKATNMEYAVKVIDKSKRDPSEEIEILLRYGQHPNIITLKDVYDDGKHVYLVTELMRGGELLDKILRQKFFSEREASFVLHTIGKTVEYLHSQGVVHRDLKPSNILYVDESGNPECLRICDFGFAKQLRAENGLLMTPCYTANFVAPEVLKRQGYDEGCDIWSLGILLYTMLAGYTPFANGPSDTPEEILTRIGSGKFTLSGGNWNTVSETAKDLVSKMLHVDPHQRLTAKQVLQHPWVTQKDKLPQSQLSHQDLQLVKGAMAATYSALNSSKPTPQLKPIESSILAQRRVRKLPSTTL
PDGFRB (human), sequence (P09619 whole entry, looked up): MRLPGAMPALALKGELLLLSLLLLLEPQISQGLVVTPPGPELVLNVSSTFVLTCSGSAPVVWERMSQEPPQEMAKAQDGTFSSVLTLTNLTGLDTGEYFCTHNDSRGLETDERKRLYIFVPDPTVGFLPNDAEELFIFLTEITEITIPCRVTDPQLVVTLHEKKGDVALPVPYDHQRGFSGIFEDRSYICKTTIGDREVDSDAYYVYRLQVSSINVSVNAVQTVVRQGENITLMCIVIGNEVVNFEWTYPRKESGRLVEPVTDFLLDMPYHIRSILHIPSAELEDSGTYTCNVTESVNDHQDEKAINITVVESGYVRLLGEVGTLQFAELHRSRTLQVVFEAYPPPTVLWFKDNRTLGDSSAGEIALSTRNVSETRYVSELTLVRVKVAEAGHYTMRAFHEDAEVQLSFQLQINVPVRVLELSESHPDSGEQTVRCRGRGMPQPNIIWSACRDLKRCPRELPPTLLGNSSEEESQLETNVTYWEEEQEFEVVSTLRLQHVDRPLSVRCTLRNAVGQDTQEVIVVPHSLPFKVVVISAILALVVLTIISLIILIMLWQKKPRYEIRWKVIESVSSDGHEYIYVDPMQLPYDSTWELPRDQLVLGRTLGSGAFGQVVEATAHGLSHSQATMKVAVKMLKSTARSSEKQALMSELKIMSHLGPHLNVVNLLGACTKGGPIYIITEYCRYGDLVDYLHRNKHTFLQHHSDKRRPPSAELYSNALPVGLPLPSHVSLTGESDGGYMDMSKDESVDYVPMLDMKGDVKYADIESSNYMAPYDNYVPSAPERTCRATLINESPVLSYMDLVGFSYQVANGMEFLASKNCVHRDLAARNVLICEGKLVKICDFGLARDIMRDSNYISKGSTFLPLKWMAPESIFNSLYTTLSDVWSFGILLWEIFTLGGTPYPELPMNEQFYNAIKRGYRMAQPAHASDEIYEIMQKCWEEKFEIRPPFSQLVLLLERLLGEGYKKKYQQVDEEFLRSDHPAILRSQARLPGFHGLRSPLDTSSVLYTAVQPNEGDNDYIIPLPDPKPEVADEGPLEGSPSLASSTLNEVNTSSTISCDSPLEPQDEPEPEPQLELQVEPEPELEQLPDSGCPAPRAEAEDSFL
WNK2 (human), sequence (Q9Y3S1 whole entry, looked up): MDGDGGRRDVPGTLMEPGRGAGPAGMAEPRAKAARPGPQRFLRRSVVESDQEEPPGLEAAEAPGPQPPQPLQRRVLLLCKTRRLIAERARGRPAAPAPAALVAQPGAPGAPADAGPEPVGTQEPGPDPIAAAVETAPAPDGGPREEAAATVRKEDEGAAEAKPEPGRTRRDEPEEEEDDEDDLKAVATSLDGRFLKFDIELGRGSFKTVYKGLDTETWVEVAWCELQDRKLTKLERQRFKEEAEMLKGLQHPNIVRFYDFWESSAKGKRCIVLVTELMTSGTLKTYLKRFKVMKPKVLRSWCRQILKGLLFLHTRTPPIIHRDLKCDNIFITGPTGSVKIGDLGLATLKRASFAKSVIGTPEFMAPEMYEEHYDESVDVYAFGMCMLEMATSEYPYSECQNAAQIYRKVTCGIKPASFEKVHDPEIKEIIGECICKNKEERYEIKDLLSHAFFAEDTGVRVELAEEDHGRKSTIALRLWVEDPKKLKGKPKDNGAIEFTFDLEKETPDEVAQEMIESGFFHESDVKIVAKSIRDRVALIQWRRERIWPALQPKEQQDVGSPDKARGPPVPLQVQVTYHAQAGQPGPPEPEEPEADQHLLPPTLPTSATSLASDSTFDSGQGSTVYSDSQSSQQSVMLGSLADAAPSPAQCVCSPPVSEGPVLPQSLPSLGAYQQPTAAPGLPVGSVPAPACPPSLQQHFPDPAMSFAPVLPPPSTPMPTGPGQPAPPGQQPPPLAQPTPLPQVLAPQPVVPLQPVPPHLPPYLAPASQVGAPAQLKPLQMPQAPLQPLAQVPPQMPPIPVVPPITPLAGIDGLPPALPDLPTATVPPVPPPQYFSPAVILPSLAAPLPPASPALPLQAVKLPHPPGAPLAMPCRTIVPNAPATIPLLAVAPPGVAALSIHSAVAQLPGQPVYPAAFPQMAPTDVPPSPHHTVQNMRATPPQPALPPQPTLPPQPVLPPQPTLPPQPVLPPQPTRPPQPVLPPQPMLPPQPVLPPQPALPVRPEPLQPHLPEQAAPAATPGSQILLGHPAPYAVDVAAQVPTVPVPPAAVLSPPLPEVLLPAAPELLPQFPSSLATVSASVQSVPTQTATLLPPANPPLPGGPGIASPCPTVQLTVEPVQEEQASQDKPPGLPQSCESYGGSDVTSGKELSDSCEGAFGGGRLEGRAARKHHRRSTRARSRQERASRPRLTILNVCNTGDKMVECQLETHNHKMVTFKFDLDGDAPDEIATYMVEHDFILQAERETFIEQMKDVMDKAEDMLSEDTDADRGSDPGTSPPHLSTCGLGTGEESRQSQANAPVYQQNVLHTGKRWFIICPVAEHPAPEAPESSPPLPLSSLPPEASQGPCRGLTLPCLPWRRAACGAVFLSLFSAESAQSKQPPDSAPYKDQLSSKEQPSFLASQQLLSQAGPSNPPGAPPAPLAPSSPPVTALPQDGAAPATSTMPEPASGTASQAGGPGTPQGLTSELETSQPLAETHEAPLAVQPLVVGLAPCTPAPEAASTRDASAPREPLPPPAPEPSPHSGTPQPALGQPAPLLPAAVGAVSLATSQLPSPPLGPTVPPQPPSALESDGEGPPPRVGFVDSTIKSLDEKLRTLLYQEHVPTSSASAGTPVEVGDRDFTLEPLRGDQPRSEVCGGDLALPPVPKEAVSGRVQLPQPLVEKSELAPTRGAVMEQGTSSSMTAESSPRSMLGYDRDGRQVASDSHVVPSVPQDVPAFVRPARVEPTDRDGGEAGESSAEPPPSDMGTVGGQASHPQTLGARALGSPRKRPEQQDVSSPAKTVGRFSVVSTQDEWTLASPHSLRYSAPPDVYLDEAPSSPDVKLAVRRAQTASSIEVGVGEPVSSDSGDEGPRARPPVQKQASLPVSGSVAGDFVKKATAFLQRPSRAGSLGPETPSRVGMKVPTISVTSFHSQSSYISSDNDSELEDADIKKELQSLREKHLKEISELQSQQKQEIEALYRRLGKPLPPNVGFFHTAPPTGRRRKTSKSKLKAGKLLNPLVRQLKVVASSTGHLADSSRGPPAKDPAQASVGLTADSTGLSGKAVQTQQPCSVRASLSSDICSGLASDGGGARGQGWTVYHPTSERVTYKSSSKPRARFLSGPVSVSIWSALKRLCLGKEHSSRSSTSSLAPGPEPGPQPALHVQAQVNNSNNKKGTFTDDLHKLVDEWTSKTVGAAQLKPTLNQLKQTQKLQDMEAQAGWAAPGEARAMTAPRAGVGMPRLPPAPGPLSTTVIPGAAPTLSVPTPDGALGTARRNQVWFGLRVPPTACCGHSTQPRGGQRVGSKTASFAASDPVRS
MAPK9 (human), sequence (P45984 whole entry, looked up): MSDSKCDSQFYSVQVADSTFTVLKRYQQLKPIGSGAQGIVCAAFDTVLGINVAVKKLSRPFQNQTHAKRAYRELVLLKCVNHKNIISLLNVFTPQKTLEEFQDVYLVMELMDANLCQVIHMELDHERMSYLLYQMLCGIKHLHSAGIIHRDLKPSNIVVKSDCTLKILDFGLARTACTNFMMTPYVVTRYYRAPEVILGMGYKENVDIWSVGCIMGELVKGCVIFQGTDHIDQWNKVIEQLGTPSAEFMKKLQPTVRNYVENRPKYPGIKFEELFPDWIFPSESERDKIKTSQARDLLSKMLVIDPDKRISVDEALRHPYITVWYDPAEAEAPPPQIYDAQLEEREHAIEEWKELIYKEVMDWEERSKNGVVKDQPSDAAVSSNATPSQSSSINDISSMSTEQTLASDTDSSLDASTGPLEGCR

In the case of `COc1ccc(CNC(=O)Nc2ncc([N+](=O)[O-])s2)cc1`, the residual activity (PDGFRB (human)) is reported as 125%, the residual activity (HIPK4 (human)) is reported as 103% and the residual activity (TNK2 (human)) is reported as 96.8%. For the same molecule, the residual activity (MYLK (human)) was 94.1%, the residual activity (PKN1 (human)) was 94.3% and the residual activity (MAPK9 (human)) was 135%. For the same molecule, the residual activity (PRKG1 (human)) was 95.9% and 97.3%, the residual activity (NEK6 (human)) was 100% and the residual activity (CSNK1G2 (human)) was 100%. For the same molecule, the residual activity (CHEK1 (human)) was 98%, the residual activity (LTK (human)) was 101% and the residual activity (CDK4 CCND1 (human)) was 97.3%. For the same molecule, the residual activity (HCK (human)) was 96.7%, the residual activity (MATK (human)) was 96.6% and the residual activity (PTK2 (human)) was 101%. The residual activity (MERTK (human)) was 91.1%, the residual activity (MAP3K9 (human)) was 101% and the residual activity (CLK1 (human)) was 106%. For the same molecule, the residual activity (ACVR1 (human)) was 99.5%, the residual activity (MAP4K4 (human)) was 98.8% and the residual activity (CHUK (human)) was 97.1%. It also gave a residual activity (CAMK2D (human)) of 98.3%, a residual activity (NLK (human)) of 102% and a residual activity (FYN (human)) of 102%. For the same molecule, the residual activity (FGR (human)) was 92.4%, the residual activity (CLK2 (human)) was 97.4% and the residual activity (FES (human)) was 97.7%. The residual activity (RPS6KB1 (human)) was 85.4%, the residual activity (RPS6KA1 KD1 KD2 (human)) was 96.4% and the residual activity (CDK3 CCNE1 (human)) was 94.8%. It also gave a residual activity (TEC (human)) of 97.7%, a residual activity (WNK2 (human)) of 104% and a residual activity (EPHA3 (human)) of 111%. It also gave a residual activity (MAPK10 (human)) of 96.1%, a residual activity (CDK6 CCND1 (human)) of 98.6% and a residual activity (RPS6KA6 KD1 KD2 (human)) of 99.8%. It also gave a residual activity (PRKCA (human)) of 61.9%, a residual activity (LCK (human)) of 101% and a residual activity (ULK2 (human)) of 93.4%. It also gave a residual activity (PRKCB2 (human)) of 103%.
In the case of `O=C1NC(=O)C(c2cn(CCCO)c3ncccc23)=C1c1cnccn1`, the residual activity (PDGFRB (human)) is reported as 102%, the residual activity (HIPK4 (human)) is reported as 104% and the residual activity (TNK2 (human)) is reported as 90.7%. The residual activity (MYLK (human)) was 74%, the residual activity (PKN1 (human)) was 97.8% and the residual activity (MAPK9 (human)) was 100%. For the same molecule, the residual activity (NEK6 (human)) was 94.2%, the residual activity (CSNK1G2 (human)) was 66% and the residual activity (CHEK1 (human)) was 141%. For the same molecule, the residual activity (MELK (human)) was 101%, the residual activity (LTK (human)) was 90.9% and the residual activity (CDK4 CCND1 (human)) was 89.5%. It also gave a residual activity (HCK (human)) of 63.4%, a residual activity (MATK (human)) of 95.5% and a residual activity (PTK2 (human)) of 101%. For the same molecule, the residual activity (MERTK (human)) was 78.7%, the residual activity (MAP3K9 (human)) was 85.5% and the residual activity (CLK1 (human)) was 88.5%. It also gave a residual activity (ACVR1 (human)) of 97%, a residual activity (MAP4K4 (human)) of 36.4% and a residual activity (BLK (human)) of 87.1%. The residual activity (CAMK2D (human)) was 101%, the residual activity (NLK (human)) was 91.2% and the residual activity (FYN (human)) was 107%. For the same molecule, the residual activity (FGR (human)) was 108%, the residual activity (CLK2 (human)) was 98.9% and the residual activity (FES (human)) was 121%. It also gave a residual activity (RPS6KB1 (human)) of 90.2%, a residual activity (RPS6KA1 KD1 KD2 (human)) of 94.8% and a residual activity (CDK3 CCNE1 (human)) of 89.4%. For the same molecule, the residual activity (TEC (human)) was 120%, the residual activity (WNK2 (human)) was 104% and the residual activity (EPHA3 (human)) was 102%. For the same molecule, the residual activity (MAPK10 (human)) was 88%, the residual activity (CDK6 CCND1 (human)) was 83.4% and the residual activity (RPS6KA6 KD1 KD2 (human)) was 73%. It also gave a residual activity (PRKCA (human)) of 91.1%, a residual activity (LCK (human)) of 95.8% and a residual activity (ULK2 (human)) of 96.7%.
`CN([C@@H](Cc1ccc(OS(=O)(=O)c2cccc3cnccc23)cc1)C(=O)N1CCN(c2ccccc2)CC1)S(=O)(=O)c1cccc2cnccc12` showed a residual activity (PDGFRB (human)) of 104%, a residual activity (HIPK4 (human)) of 105% and a residual activity (TNK2 (human)) of 94.8%. For the same molecule, the residual activity (MYLK (human)) was 98.2%, the residual activity (PKN1 (human)) was 105% and the residual activity (MAPK9 (human)) was 85.6%. For the same molecule, the residual activity (PRKG1 (human)) was 84.2% and 93.6%, the residual activity (NEK6 (human)) was 101% and the residual activity (CSNK1G2 (human)) was 100%. The residual activity (CHEK1 (human)) was 99.5%, the residual activity (LTK (human)) was 102% and the residual activity (CDK4 CCND1 (human)) was 95.3%. The residual activity (HCK (human)) was 97.4%, the residual activity (MATK (human)) was 94.8% and the residual activity (PTK2 (human)) was 104%. The residual activity (MERTK (human)) was 100%, the residual activity (MAP3K9 (human)) was 104% and the residual activity (CLK1 (human)) was 97.3%. It also gave a residual activity (ACVR1 (human)) of 95%, a residual activity (MAP4K4 (human)) of 94.8% and a residual activity (CHUK (human)) of 93.4%. The residual activity (BLK (human)) was 102%, the residual activity (CAMK2D (human)) was 92.8% and the residual activity (NLK (human)) was 106%. For the same molecule, the residual activity (FYN (human)) was 101%, the residual activity (FGR (human)) was 99.5% and the residual activity (CLK2 (human)) was 93%. For the same molecule, the residual activity (FES (human)) was 97.7%, the residual activity (RPS6KB1 (human)) was 101% and the residual activity (RPS6KA1 KD1 KD2 (human)) was 109%. For the same molecule, the residual activity (CDK3 CCNE1 (human)) was 101%, the residual activity (TEC (human)) was 98.9% and the residual activity (WNK2 (human)) was 100%. The residual activity (EPHA3 (human)) was 102%, the residual activity (MAPK10 (human)) was 88.2% and the residual activity (CDK6 CCND1 (human)) was 91.6%. It also gave a residual activity (RPS6KA6 KD1 KD2 (human)) of 100%, a residual activity (PRKCA (human)) of 105% and a residual activity (LCK (human)) of 97.5%. It also gave a residual activity (ULK2 (human)) of 106%.
